Columns and labels:
soybean = assay: Test B pre/postemergence soybean; assay type: in vivo, Glycine max
Outline: (§1)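 Test chemicals in a non-phytotoxic solvent mixture with surfactant were sprayed preemergence onto planted seeds and postemergence onto plants 2 to 18 cm tall (1- to 4-leaf stage). After twelve to sixteen days in a greenhouse, injury was visually rated against untreated controls from 0 (no effect) to 10 (complete control).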

bamyardgrass = assay: Test B flood test barnyardgrass; assay type: in vivo, Echinochloa crus-galli
Outline: (§2)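 Read-out is a visual response score from 0 (no effect) to 10 (complete control), assigned by comparison with untreated controls. Treatment was applied at the 2-leaf stage, and plants stayed in the greenhouse for twelve to sixteen days before scoring.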

cocklebur = assay: Test B pre/postemergence cocklebur; assay type: in vivo, Xanthium strumarium
Outline: as §1

duck salad = assay: Test B flood test duck salad; assay type: in vivo, Heteranthera limosa
Outline: as §2

pigweed = assay: Test B pre/postemergence pigweed; assay type: in vivo, Amaranthus retroflexus
Outline: as §1

velvetleaf = assay: Test B pre/postemergence velvetleaf; assay type: in vivo, Abutilon theophrasti; settings: for Plant response rating, Velvetleaf: Rate 250 g/ha
Outline: as §1

corn = assay: Test B pre/postemergence corn; assay type: in vivo, Zea mays
Outline: as §1

morningglory = assay: Test B pre/postemergence morningglory; assay type: in vivo, Ipomoea hederacea
Outline: as §1

rape = assay: Test B pre/postemergence rape; assay type: in vivo, Brassica napus
Outline: as §1

sugar beet = assay: Test B pre/postemergence sugar beet; assay type: in vivo, Beta vulgaris; settings: for Plant response rating, Sugarbeets: Rate 250 g/ha
Outline: as §1

surinam grass = assay: Test B pre/postemergence surinam grass; assay type: in vivo, Brachiaria decumbens
Outline: as §1

bedstraw = assay: Test B pre/postemergence bedstraw; assay type: in vivo, Galium aparine
Outline: as §1

smallflower flatsedge = assay: Test B flood test smallflower flatsedge; assay type: in vivo, Cyperus difformis
Outline: as §2

purple nutsedge = assay: Test B pre/postemergence purple nutsedge; assay type: in vivo, Cyperus rotundus
Outline: as §1

blackgrass = assay: Test B pre/postemergence blackgrass; assay type: in vivo, Alopecurus myosuroides
Outline: as §1

giant foxtail = assay: Test B pre/postemergence giant foxtail; assay type: in vivo, Setaria faberii
Outline: as §1

[1] = Postemergence, Rate 125 g/ha, scale of 0 to 10 where 0 is no effect and 10 is complete control
[2] = Preemergence, Rate 62 g/ha, scale 0 to 10 (0 no effect, 10 complete control)
[3] = Preemergence, Rate 125 g/ha, scale 0 to 10 (0 no effect, 10 complete control)
[4] = Preemergence, Rate 250 g/ha, scale of 0 to 10 where 0 is no effect and 10 is complete control
[5] = Preemergence, Rate 500 g/ha, scale 0 to 10 (0 no effect, 10 complete control)
[6] = Rate 62 g/ha, Postemergence, scale of 0 to 10 where 0 is no effect and 10 is complete control
[7] = Rate 250 g/ha, Postemergence, scale 0 to 10, 0 is no effect, 10 is complete control
[8] = Rate 500 g/ha, Postemergence, scale 0 to 10, 0 no effect, 10 complete control
[9] = Postemergence, Rate 62 g/ha, scale 0 to 10, 0 is no effect, 10 is complete control
[10] = Rate 500 g/ha, listed under Postemergence (flood test species), scale 0 to 10, 0 no effect, 10 complete control
[11] = flood test, listed under Postemergence, Rate 250 g/ha, scale 0 to 10, 0 no effect, 10 complete control
[12] = Postemergence, Rate 250 g/ha, scale 0 to 10, 0 no effect, 10 complete control
[13] = Postemergence (flood test species), Rate 125 g/ha, scale of 0 to 10 where 0 is no effect and 10 is complete control
[14] = Rate 62 g/ha, Postemergence section, flood test species, scale of 0 to 10 where 0 is no effect and 10 is complete control
[15] = Preemergence, Rate 125 g/ha, 0 is no effect, 10 is complete control
[16] = Preemergence, scale of 0 to 10 where 0 is no effect and 10 is complete control
[17] = Postemergence, scale 0 to 10, 0 is no effect, 10 is complete control
[18] = Rate 125 g/ha, Postemergence, scale 0 to 10, 0 no effect, 10 complete control

CC(C)N(C(=O)n1oc(=O)n(C(C)C)c1=O)c1ccc(Cl)cc1 [Compound 114]
9: Corn plant response rating (corn; [5]) | Giant foxtail plant response rating (giant foxtail; [1]) | Giant foxtail plant response rating (giant foxtail; [12]) | Plant response rating, Giant foxtail (giant foxtail; [3]) | Giant foxtail plant response rating (giant foxtail; [8])
7: Soybean plant response rating (soybean; [8]) | Plant response rating, Corn (corn; [4]) | Rape plant response rating (rape; [8]) | Plant response rating, Sugarbeets (sugar beet; [16]) | Sugarbeets plant response rating (sugar beet; [5]) | Plant response rating, B. signalgrass (surinam grass; [4]) | B. signalgrass plant response rating (surinam grass; Rate 500 g/ha, Postemergence, scale of 0 to 10 where 0 is no effect and 10 is complete control) | Bedstraw plant response rating (bedstraw; [8]) | Blackgrass plant response rating (blackgrass; [12])
5: Plant response rating, Soybean (soybean; [7]) | Redroot pigweed plant response rating (pigweed; [2]) | Plant response rating, Velvetleaf (velvetleaf; [16]) | Sugarbeets plant response rating (sugar beet; [8]) | B. signalgrass plant response rating (surinam grass; [12]) | Giant foxtail plant response rating (giant foxtail; [2]) | Giant foxtail plant response rating (giant foxtail; [6])
2: Redroot pigweed plant response rating (pigweed; [1]) | Blackgrass plant response rating (blackgrass; [1])
4: Velvetleaf plant response rating (velvetleaf; [2]) | Velvetleaf plant response rating (0 to 10 scale) (velvetleaf; [15]) | Morningglory plant response rating (morningglory; [1]) | Morningglory plant response rating (morningglory; [12]) | Sugarbeets plant response rating (sugar beet; [2]) | Plant response rating, Sugarbeets (sugar beet; [17])
6: Velvetleaf plant response rating (velvetleaf; [5]) | Plant response rating, Rape (rape; [4]) | Sugarbeets plant response rating (0 to 10 scale) (sugar beet; [15]) | Bedstraw plant response rating (bedstraw; [12]) | Bedstraw plant response rating (bedstraw; [18]) | Blackgrass plant response rating (blackgrass; [2])
1: Velvetleaf plant response rating (velvetleaf; [1]) | Morningglory plant response rating (morningglory; [5]) | Morningglory plant response rating (morningglory; [6])
0: Soybean plant response rating (soybean; [2]) | Plant response rating, Soybean (soybean; [3]) | Plant response rating, Soybean (soybean; [4]) | Barnyardgrass plant response rating (bamyardgrass; [9]) | Barnyardgrass plant response rating (bamyardgrass; Rate 125 g/ha, Postemergence section (flood test species), scale 0 to 10, 0 no effect, 10 complete control) | Barnyardgrass plant response rating (bamyardgrass; [10]) | Barnyardgrass plant response rating (bamyardgrass; [11]) | Cocklebur plant response rating (cocklebur; [1]) | Cocklebur plant response rating (cocklebur; [12]) | Cocklebur plant response rating (cocklebur; [2]) | Plant response rating, Cocklebur (cocklebur; [3]) | Plant response rating, Cocklebur (cocklebur; [4]) | Cocklebur plant response rating (cocklebur; [6]) | Cocklebur plant response rating (cocklebur; [8]) | Ducksalad plant response rating (duck salad; [13]) | Ducksalad plant response rating (duck salad; [14]) | Ducksalad plant response rating (duck salad; [10]) | Ducksalad plant response rating (duck salad; [11]) | Redroot pigweed plant response rating (pigweed; [6]) | Velvetleaf plant response rating (velvetleaf; [6]) | Corn plant response rating (corn; [1]) | Corn plant response rating (corn; [12]) | Corn plant response rating (corn; [2]) | Plant response rating, Corn (corn; [3]) | Corn plant response rating (corn; [6]) | Corn plant response rating (corn; [8]) | Morningglory plant response rating (morningglory; [2]) | Plant response rating, Morningglory (morningglory; [3]) | Plant response rating, Morningglory (morningglory; [4]) | Rape plant response rating (rape; [2]) | B. signalgrass plant response rating (surinam grass; [9]) | B. signalgrass plant response rating (surinam grass; [2]) | Plant response rating, B. signalgrass (surinam grass; [3]) | B. signalgrass plant response rating (surinam grass; [18]) | Bedstraw plant response rating (bedstraw; [2]) | Plant response rating, Bedstraw (bedstraw; [3]) | Plant response rating, Bedstraw (bedstraw; [4]) | Bedstraw plant response rating (bedstraw; [5]) | S. Flatsedge plant response rating (smallflower flatsedge; [13]) | S. Flatsedge plant response rating (smallflower flatsedge; [14]) | Plant response rating, S. Flatsedge (smallflower flatsedge; Rate 250 g/ha, Postemergence (flood test), scale 0 to 10, 0 is no effect, 10 is complete control) | S. Flatsedge plant response rating (smallflower flatsedge; [10]) | Nutsedge plant response rating (purple nutsedge; [1]) | Nutsedge plant response rating (purple nutsedge; [12]) | Nutsedge plant response rating (purple nutsedge; [2]) | Plant response rating, Nutsedge (purple nutsedge; [3]) | Plant response rating, Nutsedge (purple nutsedge; [4]) | Nutsedge plant response rating (purple nutsedge; [5]) | Nutsedge plant response rating (purple nutsedge; [6]) | Nutsedge plant response rating (purple nutsedge; [8]) | Blackgrass plant response rating (blackgrass; [6])
8: Plant response rating, Redroot pigweed (pigweed; [3]) | Morningglory plant response rating (morningglory; [8]) | Plant response rating, Blackgrass (blackgrass; [3]) | Blackgrass plant response rating (blackgrass; [8])
3: Soybean plant response rating (soybean; [1]) | Soybean plant response rating (soybean; [5]) | Soybean plant response rating (soybean; [6]) | Plant response rating, Redroot pigweed (pigweed; [7]) | Redroot pigweed plant response rating (pigweed; [8]) | Plant response rating, Velvetleaf (velvetleaf; [17]) | Velvetleaf plant response rating (velvetleaf; [8]) | Rape plant response rating (rape; [1]) | Rape plant response rating (rape; [12]) | Plant response rating, Rape (rape; [3]) | Rape plant response rating (rape; [6]) | Sugarbeets plant response rating (sugar beet; [1]) | Sugarbeets plant response rating (sugar beet; [6]) | Bedstraw plant response rating (bedstraw; [9])
10: Plant response rating, Redroot pigweed (pigweed; [4]) | Redroot pigweed plant response rating (pigweed; [5]) | Rape plant response rating (rape; [5]) | B. signalgrass plant response rating (surinam grass; [5]) | Plant response rating, Blackgrass (blackgrass; [4]) | Blackgrass plant response rating (blackgrass; [5]) | Plant response rating, Giant foxtail (giant foxtail; [4]) | Giant foxtail plant response rating (giant foxtail; [5])
